In patent US5587390A, “Imidazole derivatives having a II antagonist activity” (Istituto Luso Farmaco D'Italia S.p.A., priority 1992, dated 1996):

Assays:
[1] = test system: A II-induced pressory response; experiment: inhibition of the A II-induced pressory response in the ganglio-blocked normotensive rat (in vivo); settings: iv
Excerpt: (§1) For the characterization and the evaluation of the effectiveness of the compounds of the invention, in vitro tests (such as the inhibition of the A II-induced contraction in the rabbit aorta and the displacement of ^125 I-Sar^1 -Ile^8 -AT II or [H^3 ] AT II in the rat adrenal cortex) and an in vivo test (the inhibition of the A II-induced pressory response in the ganglio-blocked normotensive rat) were selected.

[2] = biological target: T1, A II-induced contraction in the rabbit aorta (Oryctolagus cuniculus, UniProt P34976); experiment: inhibition of the A II-induced contraction in the rabbit aorta (in vitro); type: cell-based; settings: read-out: pA2 (converted)
T1 construct: A II-induced contraction in the rabbit aorta; from tissue; host or cells: rabbit aorta
T1 sequence (P34976 1-359): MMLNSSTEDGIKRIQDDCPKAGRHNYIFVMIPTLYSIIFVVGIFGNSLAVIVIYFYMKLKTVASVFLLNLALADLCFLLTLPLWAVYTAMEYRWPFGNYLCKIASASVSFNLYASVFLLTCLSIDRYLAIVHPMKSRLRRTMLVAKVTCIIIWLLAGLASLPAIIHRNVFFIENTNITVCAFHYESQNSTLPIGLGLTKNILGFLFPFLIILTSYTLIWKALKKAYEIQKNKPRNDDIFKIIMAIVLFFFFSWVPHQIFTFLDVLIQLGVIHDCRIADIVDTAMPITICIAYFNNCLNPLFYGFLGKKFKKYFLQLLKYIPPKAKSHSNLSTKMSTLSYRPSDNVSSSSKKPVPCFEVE
Excerpt: as §1

[3] = biological target: A II receptor; experiment: receptor binding test: displacement of 125I-Sar1-Ile8-AT II or [H3] AT II in the rat adrenal cortex
Excerpt: The compounds described in the present invention act as antagonists at the A II receptor level.
as §1

SMILES | ED50 [1] [mg/kg] | Kb [2] [nM] | Ki [3] [nM]
CCCCc1nc(-c2ccccc2C(=O)O)cn1Cc1ccc(-c2ccccc2-c2nnn[nH]2)cc1 [Example 10, 2-Butyl-4-(2-carboxyphenyl)-1-[[2'-(tetrazol-5-yl) -biphenyl-4-yl]methyl]-1H-imidazole] | 0.52 | 10 | –
CCCCc1nc(-c2cccc[n+]2[O-])cn1Cc1ccc(-c2ccccc2-c2nn[nH]n2)cc1 [Example 10e, 2-butyl-4-(pyridin-2-yl-N-oxide)-1-[[2'-(tetrazol-5-yl)biphenyl-4-yl]methyl]-1H-imidazole] | 0.54 | – | 6.5
